“Also recorded” adds a separate entry of the source. Values belong to the substance of their own block, whether it stands above or below them.
Legend:
Type in all cases: cell-based
[1] = test system: phosphatidylethanolamine (PE); experiment: Single induction plate assay: IFN-γ by CER T cells on plate-bound phosphatidylethanolamine (control)
Excerpt: (§1) FIGS. 19A-19C: CER T cells are activated and produce IFN-γ in response to phosphatidylserine engagement in a cell-free in vitro system. FIG. 19A: IFN-γ production in response phosphatidylserine (PS). IFN-γ production was induced in CER-1236 and CER-1234 T cells stimulated with PS (FIG. 19A), but not with phosphatidylethanolamine (PE) (FIG. 19B). […] FIG. 19C: CER1236 T cells are capable of recursive stimulation in vitro. Recursive IFN-γ induction with 3 serial stimulations at the indicated time points following a 24-hour rest after the first stimulation.
FIG. 33A-33C: CER T cells are activated and produce IFN-γ in response to phosphatidylserine engagement in a cell-free in vitro system. FIG. 33A: IFN-γ production in response phosphatidylserine (PS). IFN-γ production was induced in CER-1236 and CER-1234 T cells stimulated with PS (FIG. 33A), but not with phosphatidylethanolamine (PE) (FIG. 33B). […]
CER T-cell activation was assessed by measuring induction of IFN-gamma by plate- and cell-based assays. […] CER T cells were added and IFN-γ levels were measured 24 hours after ligand exposure by ELISA. EC50 concentrations were determined by nonlinear regression (agonist vs. response-variable slope (4 parameters)). […] Cell-based assay: cytokine induction was assessed by multiparametric ELISA using conditioned supernatants harvested after 120 hours from the cytotoxicity assay described below.

Jeko1 TMEM30A−/− cells [2] = experiment: Uptake/engulfment of pHrodo-labeled JeKo-1 PS+ (TMEM30A−/−) cells by CER T cells; settings: for uptake/engulfment of JeKo-1 PS+ (TMEM30A−/−) tumor cell fragments: pHrodo label, in vitro co-culture
Protocol: FIG. 20: FACs and imaging-based detection of pHrodo dye-labeled tumor cell phagocytosis and endocytosis.
(§2) Statistical analysis was performed using 2-way ANOVA.

phosphatidylserine (PS) = experiment: Single induction plate assay: IFN-γ by CER T cells on plate-bound phosphatidylserine (ELISA); settings: for IFN-γ production in response to phosphatidylserine: plate-bound PS; for IFNγ production by donor in response to increasing doses of plate-bound phosphatidylserine: three donors (31, 32, 38)
Excerpt: as §1
as §1, with “FIG. 33A-33C:” for “FIGS. 19A-19C:”, “33A:” for “19A:”, “33A),” for “19A),”, “33B).” for “19B).”, “33C:” for “19C:”
FIG. 44 are graphs showing IFNγ production in CER1234 T cells (left) or CER1236 T cells (right) from three donors in response to titrating doses of plate-bound phosphatidylserine.
FIG. 45 are graphs showing IFNγ production in CER1234 T cells or CER1236 T cells by donor in response to increasing doses of plate-bound phosphatidylserine.
FIG. 46 are graphs showing IFNγ production in CER1234 T cells or CER1236 T cells by donor in response to increasing doses of plate-bound phosphatidylserine at day 14 post-thaw.
FIG. 47 are graphs showing T cell expansion (left), IFNγ production (center), and cell viability (right) in CER1236 T cells in response to increasing doses of plate-bound phosphatidylserine.
FIG. 48 are graphs showing T cell expansion (left), IFNγ production (center), and cell viability (right) in CER1234 T cells in response to increasing doses of plate-bound phosphatidylserine.
CER T-cell activation was assessed by measuring induction of IFN-gamma by plate- and cell-based assays. Single induction plate assay: varying concentrations of phosphatidylserine (PS) or phosphatidylethanolamine (PE), a control membrane phospholipid not recognized by wild type TIM-4 (wtTIM-4), were coated onto high-binding tissue culture plates. CER T cells were added and IFN-γ levels were measured 24 hours after ligand exposure by ELISA. EC50 concentrations were determined by nonlinear regression (agonist vs. response-variable slope (4 parameters)). Induction by recursive stimulation plate assay: CER T cells were added to phosphatidylserine coated plates (2.5-20 μg/mL PS coating). Five days later, CER T cells were transferred to uncoated plates with fresh T cell optimizer media for 24 hours. Then, CER T cells were transferred again to a fresh PS coated plate. Supernatant was collected to assess IFN-γ induction by ELISA at various timepoints during re-stimulation (24, 72, and 120 hours). Cell-based assay: cytokine induction was assessed by multiparametric ELISA using conditioned supernatants harvested after 120 hours from the cytotoxicity assay described below.
T cells obtained from three different donors were transduced with CER1234 or CER1236 and incubated on titrating doses of plate-bound phosphatidylserine.
24 hour IFNγ stimulation by plate-bound phosphatidylserine aligns with day 5 post-activation expansion for CER1236 T cells. […] 24 hour IFNγ stimulation by plate-bound phosphatidylserine aligns with day 5 post-activation expansion for CER1234 T cells.

REC-1 cells = experiment: CER T cell cytotoxicity against REC-1 mCherry cells with ibrutinib (Incucyte); settings: for cytotoxic activity of CER T cells alone (no ibrutinib) / tumor cell killing in combination with ibrutinib: REC-1 cells
Excerpt: FIG. 38: CER1236 T cells have enhanced and more complete cytotoxic effect against Ibrutinib-treated REC-1 MCL cells but not untreated REC-1 MCL cells.
Ibrutinib was washed off prior to co-culture with CER T cells. […] Total fluorescence of REC-1 mCherry cells decreased as cytotoxicity occurred.

Jeko1 TMEM30A−/− cells [3] = experiment: CER T cell cytotoxicity against Jeko1 TMEM30A−/− cells (Incucyte); settings: for cytotoxic function against Jeko1 TMEM30A−/− cells: co-culture assays
Protocol: FIG. 22: CER1234 or CER1236 T cells display cytotoxic function against Jeko1 TMEM30A^−/− MCL cells as measured by incucyte assay.
as §2

[4] = Donor 38, 24 hours after ligand exposure
[5] = Donor 41, 24 hours after ligand exposure

Substance: CER-1236: chimeric Tim4 receptor: Tim4 binding domain-CD28tm-CD28-CD3z-TLR2 TIR, SEQ ID NO:19; tested as transduced T cells
IFN-γ production in response to phosphatidylethanolamine [1]: but not to phosphatidylethanolamine (PE)
phagocytic index (frequency and magnitude of uptake) (Jeko1 TMEM30A−/− cells [2]; compared to wtTim-4, CER1250 and CER1236+actin polymerization inhibitor): Higher frequency and magnitude of uptake
uptake/engulfment of JeKo-1 PS+ (TMEM30A−/−) tumor cell fragments (Jeko1 TMEM30A−/− cells [2]): increased uptake of JeKo-1 PS^+ tumor cell fragments; also recorded: exhibited increased engulfment of Jeko1 TMEM30A^−/− cells
PS EC50 (IFN-γ production) (phosphatidylserine (PS); [4]): 4.74 µg/mL
PS EC50 (IFN-γ production) (phosphatidylserine (PS); [5]): 3.16 µg/mL
IFNγ production by donor on plate-bound phosphatidylserine at day 14 post-thaw (phosphatidylserine (PS); day 14 post-thaw): produces more IFNγ across all donors compared to CER1234 T cells
IFN-γ production in response to phosphatidylserine (phosphatidylserine (PS)): specifically produce IFN-γ in a dose-dependent manner; also recorded: produced concentration-dependent IFN-γ responses
IFNγ production by donor in response to increasing doses of plate-bound phosphatidylserine (phosphatidylserine (PS)): shows strong activation
cytotoxic activity of CER T cells alone (no ibrutinib) (REC-1 cells): Some CER1236 T cytotoxicity against untreated REC-1 cells is observed
tumor cell killing in combination with ibrutinib (REC-1 cells): synergize with ibrutinib to enhance killing of REC-1 mantle cell lymphoma cells
cytotoxic function against Jeko1 TMEM30A−/− cells (Jeko1 TMEM30A−/− cells [3]): efficiently eliminate Jeko1 TMEM30A^−/− cells

PS EC50 (IFN-γ production) (phosphatidylserine (PS); [4]): 3.52 µg/mL
PS EC50 (IFN-γ production) (phosphatidylserine (PS); [5]): 1.88 µg/mL
Substance: CER-1234: chimeric Tim4 receptor: Tim4 binding domain-CD28tm-CD28-TLR2 TIR-CD3z, SEQ ID NO:18; tested as transduced T cells
IFN-γ production in response to phosphatidylethanolamine [1]: but not to phosphatidylethanolamine (PE)
uptake/engulfment of JeKo-1 PS+ (TMEM30A−/−) tumor cell fragments (Jeko1 TMEM30A−/− cells [2]): increased uptake of JeKo-1 PS^+ tumor cell fragments
IFN-γ production in response to phosphatidylserine (phosphatidylserine (PS)): specifically produce IFN-γ in a dose-dependent manner; also recorded: produced concentration-dependent IFN-γ responses
IFNγ production by donor in response to increasing doses of plate-bound phosphatidylserine (phosphatidylserine (PS)): shows lower activation for donors 32 and 38
cytotoxicity (REC-1 cells; BTKi treatment in combination): > 90%
cytotoxic activity of CER T cells alone (no ibrutinib) (REC-1 cells): limited cytotoxic activity
tumor cell killing in combination with ibrutinib (REC-1 cells): Tumor cell killing was enhanced
targets eliminated (Jeko1 TMEM30A−/− cells [3]; JeKo-1 PS+ cells, 96 hrs, low effector:target ratios): 90%
cytotoxic function against Jeko1 TMEM30A−/− cells (Jeko1 TMEM30A−/− cells [3]): efficiently eliminate Jeko1 TMEM30A^−/− cells

— US20250127896A1, “CHIMERIC TIM4 RECEPTORS AND USES THEREOF” (CERO THERAPEUTICS HOLDINGS, INC., priority 2021, published 2025)
